Source: patent publication EP4669337B1, “AGENTS USEFUL FOR THE PREVENTION OR TREATMENT OF ALLERGIC & INFLAMMATORY DISORDERS” (ATOPIA THERAPEUTICS SA, priority 2023, dated 2025)

System: engineered human embryonic kidney (HEK-293) TGF-β reporter cells
Assay: HEK-Blue hTGFβ reporter cell assay (Smad-inducible SEAP, optical density at 650 nm)
Assay type: cell-based
Details: 20 µl of a 3µM inhibitor solution in 200 µl total volume, added 1 hour before the test compound; SEQ ID NO:31 at 6.25-150 µg/ml; overnight incubation
Protocol: Polypeptides of the invention have been tested in the cells above in order to determine cell-surface receptors through which they signal and thereby induce immunotolerance. For this purpose, a peptide of the invention of SEQ ID NO:31 was administered to commercial engineered human embryonic kidney (HEK-293) TGF-β reporter cells that induce the production of Smad-inducible secreted embryonic alkaline phosphatase (SEAP) when human TGF-β triggers a signaling cascade leading to the formation of a Smad3/Smad4 complex which can be monitored by optical density at 650 nm as follows.
In a 96-well plate (200 µl total volume), 20 µl of a solution containing 3µM of the inhibitor LY-364947 in medium, or medium alone, are placed in a well, followed by the addition 160 µl of the HEK-Blue hTGFβ cell suspension. After 1 hour incubation, 20 µl of the test compound or the positive control are added to the wells. […] SEAP activity is assayed from the supernatant of HEK-Blue hTGFb cell by reading the optical density at 650 nm using a spectrophotometer after 3 hours incubation at 37°C with Quanti-blue, a SEAP detection reagent.
In this particular case, the formation of the Smad3/Smad4 complex (illustrated by the measured OD650 as shown on Figure 8) was induced by the presence of SEQ ID NO:31 at the following concentrations: 6.25, 12.5, 25, 50, 75, 100, 125, and 150 µg/ml. […]

## c1ccc(-c2nn3c(c2-c2ccnc4cc(OCCN5CCOCC5)ccc24)CCC3)nc1 [LY2109761]
  Smad3/Smad4 signaling cascade induced by SEQ ID NO:31 (SEAP, OD650): antagonized
